Patent US5854010A, “Bioassay for detecting 2,3,7,8-tetrachlorodibenzo-para-dioxin and TCDD-like compounds and novel recombinant cell line useful therefor” (priority 1997, dated 1998)
pEC50: −log10 of the molar value.

What was measured:
[1] = test system: Mouse T13 cells (recombinant Hepa1), alkaline phosphatase; settings: Table 3 comparison, El-Fouly et al.; read-out: ED50 (the source's name); cited from earlier work
[2] = test system: Rat H4IIE cells, CYP1A1/EROD; settings: Table 3 comparison, Kennedy et al., cited from earlier work
[3] = test system: Human 101L cells (recombinant HepG2), luciferase; settings: Table 3 comparison, Postlind et al.; read-out: ED50 (the source's name); cited from earlier work
H1L1.1 cells = assay: Time course of luciferase induction by TCDD (FIG. 2); assay type: cell-based, mouse; settings: 1 nM TCDD in DMSO
Method: Specifically, with respect to the graph of FIG. 2, the time course of luciferase induction by TCDD was examined in order to determine the optimal time period for measurement of luciferase activity in the H1L1.1 cells. In these experiments, the cells were treated with 1 nM of TCDD solubilized in DMSO or with only DMSO. The luciferase activity was determined as described above at various times up to 32 hours post exposure. Values represent the mean ± the standard evaluation of at least triplicate determinations.

H4L1.1c4 cells = assay: TCDD-inducible luciferase activity, stably transfected clonal cell line; assay type: cell-based, rat; settings: 24 h
Method: (§1) Using the stabilized luciferase assay system (purchased from Promega), luciferase activity in an aliquot of the cleared lysed cell supernatant (20 μl) was determined by mixing it with 100 µl of luciferase assay reagent (purchased from Promega) and measuring the resulting luminescence in a Turner Luminometer or Dynatech ML3000 microplate luminometer (light output was integrated over 1 minute after a delay time of 30 seconds).
(§2) Using a microplate adaptation of the method reported by Bradford in "A Rapid Sensitive Method for the Quantitation of Microgram Quantities of Protein Utilizing the Principle of Protein-Dye Binding", Anal. Biochem., […], pp. 248-254 (1976), luciferase activity was standardized to the protein concentration of the supernatant (with bovine serum albumin as the protein standard). Because of instrument differences in luminescence measurement and data output, luciferase activity was determined as relative light units (RLU) per microgram of protein, which was converted to milligram of protein as reported in the Tables below. […]
(§3) More particularly, isolated clones were grown until confluent, and then incubated in the absence or presence of TCDD (1 nM solubilized in DMSO) for 24 hours. After the incubation, luciferase activity was determined as described above.

human HG2L1.1c3 cells = assay: Antagonism of TCDD luciferase induction by 2,2',5,5'-TCB (FIG. 7); assay type: cell-based; settings: TCDD 5 nM, 24 h
Method: (§4) The bar graph of FIG. 7 illustrates that 2,2',5,5'-TCB antagonizes induction of luciferase activity by TCDD in a species-specific manner, and thus, 2,2',5,5'-TCB is not a TCDD-like compound as defined herein. In particular, six-well plates containing the indicated cell lines were incubated with DMSO (control), with TCDD (5 nM), with 2,2',5,5'-TCB (25 μM), or with both TCDD (5 nM) and 2,2',5,5'-TCB (25 μM) for 24 hours. Luciferase activity in cell lysates was determined as described above. Values represent the mean ± the standard evaluation of at least triplicate determinations.

mouse H1L1.1 cells [4] = assay: as above; assay type: cell-based; settings: TCDD 5 nM, 24 h
Method: as §4

[5] = test system: guinea pig G16L1.1c8 cells; assay: as above; assay type: cell-based; settings: TCDD 5 nM, 24 h
Method: as §4

rat H4L1.1c4 cells = assay: as above; assay type: cell-based; settings: TCDD 5 nM, 24 h
Method: as §4

G16L1.1c8 cells = assay: TCDD-inducible luciferase activity, stably transfected clonal cell line; assay type: cell-based, guinea pig; settings: 24 h
Method: as §1, §2, §3

mouse H1L1.1 cells [6] = assay: Luciferase induction by TCDD in DMSO or serum, 96-well, 4 h; detection limits (FIG. 8); assay type: cell-based
Method: Specifically, since it is desired to utilize the present bioassay system directly to detect PAHs in samples without the need for solvent extraction and concentration, the dose-dependence of luciferase induction in cells incubated with increasing concentrations of TCDD in serum versus that observed with increasing concentrations of TCDD in DMSO was examined. In other words, the present bioassay system should be advantageously employed directly with a sample of serum from an animal or human, where the sample may contain TCDD or other PAHs and the serum is the solvent, whereby solvent extraction of the sample with DMSO as the solvent is unnecessary.
The cells were incubated with the respective increasing concentrations of TCDD for 4 hours and luciferase activity of cell lysates determined as follows. […]
After incubation for an additional 15 minutes, luciferase activity in the lysed cells was determined. Luciferase activity was sensitively measured using its bioluminescent substrate, luciferin in a Dynatech ML3000 microplate luminometer. In these experiments, cells either kept intact or lysed using luciferase lysis buffer (purchased from Promega) and luciferase activity in an aliquot of the lysate was determined by automatic injection of assay reagent and measurement of the resulting bioluminescence.

[7] = TCDD 1 nM, mean ± SD of triplicate assays

In the case of `Clc1cc2c(cc1Cl)Oc1cc(Cl)c(Cl)cc1O2` [TCDD, 2,3,7,8-tetrachlorodibenzo-para-dioxin], the pEC50 [1] is given as 9.46, the “MDL (minimal detection level)” value [2] is given as 10 pM and the pEC50 ([2]; read-out: ED50 (the source's name)) is given as 10.00. The pEC50 [3] was 9.46, the “Time at which TCDD-inducible luciferase activity was detectable” value (H1L1.1 cells) was 2 h and the “Time by which luciferase activity decreased to a stable activity” value (H1L1.1 cells) was at most 12 h. For the same compound, the “Time of peak TCDD-inducible luciferase activity” value (H1L1.1 cells) was “about 4 hours”, the fold induction (H4L1.1c4 cells; Rattus norvegicus, TCDD 1 nM vs DMSO) was 25 and the “Luciferase activity, TCDD in DMSO” value (H4L1.1c4 cells; [7]) was 0.49 ± 0.03 RLU/mg protein. The “Luciferase induction by TCDD alone” value (human HG2L1.1c3 cells) was “induced luciferase activity”, the “Luciferase induction by TCDD alone” value (mouse H1L1.1 cells [4]) was “induced luciferase activity” and the “Luciferase induction by TCDD alone” value [5] was “induced luciferase activity”. For the same compound, the “Luciferase induction by TCDD alone” value (rat H4L1.1c4 cells) was “induced luciferase activity”, the fold induction (G16L1.1c8 cells; Cavia porcellus, TCDD 1 nM vs DMSO) was 25 and the “Luciferase activity, TCDD in DMSO” value (G16L1.1c8 cells; [7]) was 0.76 ± 0.03 RLU/mg protein. The “Relative potency (ED50) for luciferase induction, TCDD-serum versus TCDD-DMSO” value (mouse H1L1.1 cells [6]) was “significantly lower for the TCDD-serum sample than for the TCDD-DMSO sample” and the “Induction of luciferase by TCDD-containing serum” value (mouse H1L1.1 cells [6]; TCDD in serum) was “dose-dependent manner”.
